In brackets after ≈: the same amount, converted by molar mass. Several values for one entry are separate records, joined by “and”; a condition that tells them apart may be missing. Equal entries are not always repeated. *1 amine or outer side, *2 acyl side, *3 side chain or, on linkers, in order; H or OH if unused. Where a SMILES comes first, the peptide text is derived from it. Bridges are numbered along the chain shown (N, C = ends). Roman numbers before positions name the chains, in order. [ ]: non-standard residue; d: D form. Actinocin(9to1) = Cc1c2oc3c(C)ccc(C(=O)[*:1])c3nc-2c(C(=O)[*:2])c(N)c1=O; NMeV = CN[C@H](C(=O)O)C(C)C; Sar = CNCC(=O)O
What was measured:
sarcoma 180 solid tumor = assay: Effects on sarcoma 180 solid tumor (Test V); assay type: in vivo, mouse (ICR); details: Table IV; for T/C (tumor weight ratio treated/control): 15th-21st day
Method: Test materials were prepared in the same manner as in Test IV under (1).
A cell suspension containing 1×10^8 cells per ml. was prepared in the same way as in Test IV under (2). Four week old-ICR mice was innoculated subcutaneously on the back with 0.1 ml. of the suspenstion by means of a syringe.
As in Test IV under (3), a group of 6 animals was used for each concentration of each test material.
Grown tumor tissue was resected on the 15th-21st day of the tumor cell transplantation and weighed. An average for the group of 6 animals was taken for the evaluation. The effect was evaluated on the basis of ratio of the average weight for the treated animals to that of the control animals. […] Ratios (T/C) of 100-71% were rated ineffective (-), of 70-51% plus 1 (+), of 50-21% plus 2 (++), and of 20-0% plus 3 (+++).

[1] = system: sarcoma 180 ascites tumor; assay: Effects on sarcoma 180 ascites tumor (Test IV); assay type: in vivo, mouse (ICR); details: Table III; for T/C (TPCV ratio treated/control): 4 days, 7th day
Method: A portion of each of the extraction fractions was suspended or dissolved in 0.5% suspension of carboxymethylcellulose (CMC) in a phosphate buffered saline solution (PBS commercially available from GIBCO Laboratories, containing ca. 9.5 mM phosphate) to a predetermined concentration.
Mouse sarcoma 180 tumor cells which have been subcultivated intraperitoneally in ICR mice were drawn from the mouse together with the ascites and diluted with physiological saline solution to a cell count of 10^8 per ml. The tumor cell suspension thus prepared was transplanted by means of a syringe intraperitoneally into 4 week-old male ICR mice at a dose of 0.1 ml. Consequently, the cell count transplanted per mouse was 1×10^7.
The test material as prepared above was intraperitoneally administered at a dose of 0.1 ml. per mouse for 4 days once a day from the next day of the transplantation of mouse sarcoma 180 tumor cells. A group of 6 mice was employed for each concentration of each test material. […] As a control was administered the CMC-containing PBS as described above only in the same way as above. The dose is expressed as weight per kg. bodyweight of mouse.
On the 7th day of transplantation of the tumor cells the bodyweight of each mouse was measured (X). Then, ascites was thoroughly drawn from the mouse, followed by measurement of the bodyweight (Y). X-Y is taken as the amount of ascites.
The drawn ascites was the introduced into a hematocrit tube and then centrifuged at 15,000 G for 5 minutes using a hematocrit rotor at a low temperature. There was thus made determination of the ascitocrit value, that is, proportion of the cells present in the ascites which corresponded to the hematocrit value in hematology. The value multiplied by volume of the ascites gives the volume of the cells present in the ascites. This is designated as total packed cell volume (TPCV).
Effect on the tumor was rated ineffective (-) when the TPCV ratio of the treated to the control (T/C) was 100-66%, plus 1 (+) when it was 65-41%, plus 2 (++) when it was 40-11%, and plus 3 (+++) when it was 10-0%.

mouse L-5178Y cells = assay: Effects on mouse L-5178Y cells (Test III); assay type: cell-based; details: 2 days
Method: A medium containing 1×10^5 cells/ml. was prepared using mouse L-5178Y cells cultivated on RPMI-1640 medium containing 10% fetal bovine serum for 3 days. The medium was placed in a 96-well U-type microplate in an amount of 50 μl. per well.
A portion of the test material, which was one of the extracts according to the invention described in the above examples, was dissolved in the medium to a final concentration in the medium as shown in Table II below. The amount of the solution per well was 60 μl. The test material thus prepared was incubated in a carbon-dioxide incubator at 37° C. for 2 days. After completion of the incubation, the cells were collected and counted well by well, and the cell counts were compared with cell count of the control which contained no test material. The cell could of the control was approximately 8.6×10^5 /ml. For activity comparison's sake, the same test was done with mitomycin C (MMC) or bleomycin (BLM). In the table below, T/C represents the ratio of count of the cells treated with the test material to that with no test material added. ID50 is the concentration of the test material required for decreasing concentration of the cells to 1/2 that of the control.
The neem extracts produced in Examples 5-7 above were tested for effects on mouse L-5178Y cells, sarcoma 180 ascites and solid tumors according to the methods described in Tests II-IV.

How did the Rating (sarcoma 180 solid tumor; 20 mg./kg.) turn out when `O=c1[nH]cc(F)c(=O)[nH]1` [Example 5-Fu, 5-fluorouracil] was run?
The Rating was “+ (of 70-51% plus 1 (+))”.

What about the “T/C (tumor weight ratio treated/control)” value (sarcoma 180 solid tumor; 20 mg./kg.) of the same compound?
The value was 47.8%.

What about the Rating ([1]; 20 mg./kg.) of the same compound?
The Rating was “+++ (plus 3 (+++) when it was 10-0%)”.

And the “T/C (TPCV ratio treated/control)” value ([1]; 20 mg./kg. i.p. once a day)?
The value was 0%.

With `Cc1c2oc3c(C)ccc(C(=O)N[C@@H]4C(=O)N[C@H](C(C)C)C(=O)N5CCC[C@H]5C(=O)N(C)CC(=O)N(C)[C@@H](C(C)C)C(=O)O[C@@H]4C)c3nc-2c(C(=O)N[C@@H]2C(=O)N[C@H](C(C)C)C(=O)N3CCC[C@H]3C(=O)N(C)CC(=O)N(C)[C@@H](C(C)C)C(=O)O[C@@H]2C)c(N)c1=O` [ACD, actinomycin D] (I: T[dV]P[Sar][NMeV] / II: T[dV]P[Sar][NMeV]; ester I:1-I:C, II:1-II:C; linker I:N-II:N via Actinocin(9to1)) as the compound, how does the Rating ([1]; 0.1 mg./kg.) read?
The Rating was “+++ (plus 3 (+++) when it was 10-0%)”.

What about the “T/C (TPCV ratio treated/control)” value ([1]; 0.1 mg./kg. i.p. once a day) of the same compound?
Its value is 0%.

Which results are given for `O=P1(N(CCCl)CCCl)NCCCO1` (centres unmarked) [CYP, cyclophosphamide]?
Rating (sarcoma 180 solid tumor; 33 mg./kg.): +++ (of 20-0% plus 3 (+++)); T/C (tumor weight ratio treated/control) (sarcoma 180 solid tumor; 33 mg./kg.): 0%; Rating (sarcoma 180 solid tumor; 67 mg./kg.): +++ (of 20-0% plus 3 (+++)); T/C (tumor weight ratio treated/control) (sarcoma 180 solid tumor; 67 mg./kg.): 0%; Rating ([1]; 33 mg./kg.): +++ (plus 3 (+++) when it was 10-0%); T/C (TPCV ratio treated/control) ([1]; 33 mg./kg. i.p. once a day): 0%; Rating ([1]; 67 mg./kg.): +++ (plus 3 (+++) when it was 10-0%); T/C (TPCV ratio treated/control) ([1]; 67 mg./kg. i.p. once a day): 0%

What does the source list for bleomycin [BLM]?
T/C (tumor weight ratio treated/control) (sarcoma 180 solid tumor; 10 mg./kg.): 43.5% and 52.3%; T/C (cell count treated / no test material) (mouse L-5178Y cells; 5 μg./ml.): 57.1%; T/C (cell count treated / no test material) (mouse L-5178Y cells; 10 μg./ml.): 46.1%; T/C (cell count treated / no test material) (mouse L-5178Y cells; 100 μg./ml.): 8.8%; ID50 (mouse L-5178Y cells; Table II, concentration decreasing cells to 1/2 of control): 7.8 µg/mL; Rating ([1]; 10 mg./kg.): +++ (plus 3 (+++) when it was 10-0%); T/C (TPCV ratio treated/control) ([1]; 10 mg./kg. i.p. once a day): 0%

How did the Rating (sarcoma 180 solid tumor; 0.5 mg./kg.) turn out when `CO[C@@]12[C@H](COC(N)=O)C3=C(C(=O)C(C)=C(N)C3=O)N1C[C@@H]1N[C@@H]12` [MMC, mitomycin C] was run?
Its Rating is “- (Ratios (T/C) of 100-71% were rated ineffective (-))”.

What about the “T/C (tumor weight ratio treated/control)” value (sarcoma 180 solid tumor; 0.5 mg./kg.) of the same compound?
Its value is 71.0%.

And the “T/C (tumor weight ratio treated/control)” value (sarcoma 180 solid tumor; 1.5 mg./kg.)?
Its value is 32.5% and 50.2%.

What about the activity at 0.1 µg/mL (mouse L-5178Y cells; Mus musculus, L5178Y, 48 h, 0.1 μg./ml., read-out: T/C (cell count treated / no test material)) of the same compound?
The activity at 0.1 µg/mL was 47.9%.

What about the activity at 0.3 µg/mL (mouse L-5178Y cells; Mus musculus, L5178Y, 48 h, 0.3 μg./ml., read-out: T/C (cell count treated / no test material)) of the same compound?
The activity at 0.3 µg/mL was 24.7%.

What about the activity at 1 µg/mL (mouse L-5178Y cells; Mus musculus, L5178Y, 48 h, 1.0 μg./ml., read-out: T/C (cell count treated / no test material)) of the same compound?
The activity at 1 µg/mL was 13.4%.

What about the IC50 (mouse L-5178Y cells; Mus musculus, L5178Y, 48 h, Table II, concentration decreasing cells to 1/2 of control, read-out: ID50 (the source's name)) of the same compound?
Its IC50 is 0.09 µg/mL (≈ 0.269 µM).

And the Rating ([1]; 0.5 mg./kg.)?
Its Rating is “+++ (plus 3 (+++) when it was 10-0%)”.

What about the “T/C (TPCV ratio treated/control)” value ([1]; 0.5 mg./kg. i.p. once a day) of the same compound?
The value was 0%.

And the Rating ([1]; 1.5 mg./kg.)?
Its Rating is “+++ (plus 3 (+++) when it was 10-0%)”.

And the “T/C (TPCV ratio treated/control)” value ([1]; 1.5 mg./kg. i.p. once a day)?
Its value is 0%.

Reference: patent US4515785A, “Neem bark extracts” (priority 1980, dated 1985)
